One assay deals with SK-MEL-3 tumor cells. Put plainly: Cell growth inhibition assay (CellTiter-Glo), SK-MEL-3. The format is cell-based, Human. The conditions noted are these: Homo sapiens, SK-MEL3. An outline of the steps: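 Cells plated at 500 cells/well in their growth media, dosed next day with nine-step 1:3 compound dilutions (final DMSO 0.2%), then incubated 3 days at 37° C, 5% CO2. Total ATP read by CellTiter-Glo luminescence as a surrogate for cell number; IC50 interpolated from 4-parameter fit versus DMSO controls.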

A further assay deals with T1, ErbB2 (Homo sapiens, UniProt P04626).
T1 construct: made in house; host or cells: baculovirus expression system
Put plainly: ErbB-2 substrate phosphorylation assay (HTRF). Type of assay: biochemical. An outline of the steps:
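Baculovirus-expressed EGFR (0.8 nM) or ErbB2 (10 nM) in enzyme mix, preincubated 1 h at 20 °C with compound (0.00027–47.6 μM final), then 90 min at 20 °C with substrate mix of 20 μM ATP, 0.8 uM biotinylated Peptide C, MnCl2, MOPS pH 7.5. Phosphotyrosine by HTRF; pIC50 reported.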
On the technique in general: TR-FRET usually uses a lanthanide donor and a delayed reading to cut background.

As a reminder, the IC50 is the concentration that gives 50% inhibition.

Molecules are shown by their SMILES.

T1 sequence (P04626 23-1255): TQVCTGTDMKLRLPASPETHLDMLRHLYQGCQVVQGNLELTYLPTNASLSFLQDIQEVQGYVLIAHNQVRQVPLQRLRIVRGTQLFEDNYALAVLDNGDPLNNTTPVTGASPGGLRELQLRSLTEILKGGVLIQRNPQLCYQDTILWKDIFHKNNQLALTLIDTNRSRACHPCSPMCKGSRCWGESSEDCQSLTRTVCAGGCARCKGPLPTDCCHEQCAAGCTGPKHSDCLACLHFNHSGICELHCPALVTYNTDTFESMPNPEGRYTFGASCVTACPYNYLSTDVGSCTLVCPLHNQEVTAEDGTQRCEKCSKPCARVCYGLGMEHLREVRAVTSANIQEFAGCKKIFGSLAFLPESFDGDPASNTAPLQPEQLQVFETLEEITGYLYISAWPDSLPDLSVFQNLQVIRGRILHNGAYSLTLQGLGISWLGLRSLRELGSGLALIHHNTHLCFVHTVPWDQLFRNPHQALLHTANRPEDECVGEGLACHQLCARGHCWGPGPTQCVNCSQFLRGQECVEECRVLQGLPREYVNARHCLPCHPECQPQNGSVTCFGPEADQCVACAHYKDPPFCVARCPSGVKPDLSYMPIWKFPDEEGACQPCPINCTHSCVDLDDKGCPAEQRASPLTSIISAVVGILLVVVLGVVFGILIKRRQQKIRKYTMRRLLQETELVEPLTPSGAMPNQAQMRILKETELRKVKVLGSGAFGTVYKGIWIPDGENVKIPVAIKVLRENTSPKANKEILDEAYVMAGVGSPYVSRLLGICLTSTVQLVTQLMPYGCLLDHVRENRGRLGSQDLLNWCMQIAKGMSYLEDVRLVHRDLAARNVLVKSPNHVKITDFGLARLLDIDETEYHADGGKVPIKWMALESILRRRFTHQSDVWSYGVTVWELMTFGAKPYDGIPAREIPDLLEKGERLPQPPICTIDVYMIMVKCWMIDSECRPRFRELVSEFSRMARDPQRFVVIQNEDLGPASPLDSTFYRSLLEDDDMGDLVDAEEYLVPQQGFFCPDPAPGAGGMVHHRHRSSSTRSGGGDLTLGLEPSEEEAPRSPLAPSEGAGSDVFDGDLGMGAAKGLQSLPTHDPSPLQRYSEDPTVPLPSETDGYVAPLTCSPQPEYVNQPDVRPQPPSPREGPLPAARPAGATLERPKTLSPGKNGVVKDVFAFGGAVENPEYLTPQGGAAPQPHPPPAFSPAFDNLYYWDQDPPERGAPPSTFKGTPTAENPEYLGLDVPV

`CC(C)c1nc(-c2cccc(NS(=O)(=O)c3ccccc3)c2)c(-c2ccnc(Nc3ccc(N4CCOCC4)cn3)n2)s1` [Example 92]: the IC50 in the assay on SK-MEL-3 tumor cells is 100 to 1000 nM; at ErbB2 it was more than 1000 nM.
As to `CC(C)c1nc(-c2cccc(NS(=O)(=O)c3ccccc3)c2)c(-c2ccnc(Nc3ccc(CC4CCN(CCS(C)(=O)=O)CC4)c(F)c3)n2)s1` [Example 72], the IC50 in the assay with SK-MEL-3 tumor cells was less than 100 nM; against ErbB2, more than 1000 nM.
In the case of `CC(C)c1nc(-c2cc(F)cc(NS(=O)(=O)c3c(F)cccc3F)c2)c(-c2ccnc(Nc3ccc(N4CCOCC4)nc3)n2)s1` [Example 84], the IC50 was less than 100 nM in the assay with SK-MEL-3 tumor cells and more than 1000 nM against ErbB2.
The like results for `CC(C)c1nc(-c2cccc(NS(=O)(=O)c3ccccc3)c2)c(-c2ccnc(Nc3ccc(N4CCN(CCS(C)(=O)=O)CC4)c(F)c3F)n2)s1` [Example 74] were, in that order, 100 to 1000 nM and more than 1000 nM.
For the compound `CC(C)c1nc(-c2cccc(NS(=O)(=O)c3c(F)cccc3F)c2)c(-c2ccnc(Nc3ccc(N4CC[C@@H](O)C4)nc3)n2)s1` [Example 89], the results for the IC50 in the assay on SK-MEL-3 tumor cells and on ErbB2 were less than 100 nM and 100 to 1000 nM, respectively.
In the case of `CC(C)c1nc(-c2cc(F)cc(NS(=O)(=O)c3c(F)cccc3F)c2)c(-c2ccnc(Nc3ccc(N4CCOCC4)c(F)c3)n2)s1` [Example 85], the results for the IC50 with SK-MEL-3 tumor cells and against ErbB2 were less than 100 nM and 100 to 1000 nM, respectively.
`CC(C)c1nc(-c2cccc(NS(=O)(=O)c3c(F)cccc3F)c2)c(-c2ccnc(Nc3ccc(N4CCCN(CCS(C)(=O)=O)CC4)nc3)n2)s1` [Example 88]: the IC50 in the assay with SK-MEL-3 tumor cells was less than 100 nM; against ErbB2 it was 100 to 1000 nM.
The like results for `CC(C)c1nc(-c2cccc(NS(=O)(=O)c3c(F)cccc3F)c2)c(-c2ccnc(Nc3cccc(N4CCN(C)CC4)c3)n2)s1` [Example 81] were, in that order, less than 100 nM and 100 to 1000 nM.
The like results for `Cc1cc(N2CCC(N3CCCCC3)CC2)ccc1Nc1nccc(-c2sc(C(C)C)nc2-c2cccc(NS(=O)(=O)c3c(F)cccc3F)c2)n1` [Example 91] were, in that order, 100 to 1000 nM and less than 100 nM.
Regarding `COc1cc(N2CCN(CCF)CC2)ccc1Nc1nccc(-c2sc(C(C)C)nc2-c2cccc(NS(=O)(=O)c3c(F)cccc3F)c2)n1` [Example 79], the IC50 in the assay with SK-MEL-3 tumor cells and on ErbB2 was 100 to 1000 nM in each case.
On to `CC(C)c1nc(-c2cccc(NS(=O)(=O)c3c(F)cccc3F)c2)c(-c2ccnc(Nc3cc(F)c(N4CCN(CCS(C)(=O)=O)CC4)cc3F)n2)s1` [Example 87], for which the IC50 with SK-MEL-3 tumor cells is less than 100 nM; on ErbB2 it was 100 to 1000 nM.
Regarding `CC(C)c1nc(-c2ccc(F)c(NS(=O)(=O)c3c(F)cccc3F)c2)c(-c2ccnc(Nc3ccc(N4CCN(CCS(C)(=O)=O)CC4)c(F)c3)n2)s1` [Example 95], the IC50 in the assay on SK-MEL-3 tumor cells and at ErbB2 was 100 to 1000 nM throughout.
Turning to `CC(C)c1nc(-c2cccc(NS(=O)(=O)c3c(F)cccc3F)c2)c(-c2ccnc(Nc3ccc(N4CCN(CCO)CC4)nc3)n2)s1` [Example 80], the IC50 in the assay on SK-MEL-3 tumor cells was less than 100 nM; against ErbB2, more than 1000 nM.
On to `CC(C)c1nc(-c2cc(F)cc(NS(=O)(=O)c3ccc(F)cc3)c2)c(-c2ccnc(Nc3ccc(N4CCOCC4)c(F)c3)n2)s1` [Example 83], for which the IC50 with SK-MEL-3 tumor cells is 100 to 1000 nM; at ErbB2, more than 1000 nM.
Consider `CC(C)c1nc(-c2cccc(NS(=O)(=O)c3c(F)cccc3F)c2)c(-c2ccnc(Nc3ccc(N4CCCNCC4)nc3)n2)s1` [Example 82], for which the results for the concentration for half-maximal inhibition (IC50) in the assay on SK-MEL-3 tumor cells and against ErbB2 were less than 100 nM and 100 to 1000 nM, respectively.
`CC(C)c1nc(-c2cccc(NS(=O)(=O)c3ccccc3)c2)c(-c2ccnc(Nc3ccc(F)c(N4CCN(CCS(C)(=O)=O)CC4)c3)n2)s1` [Example 73]: the IC50 is less than 100 nM in the assay on SK-MEL-3 tumor cells and 100 to 1000 nM at ErbB2.
For the compound `CC(=O)N1CCN(c2ccc(Nc3nccc(-c4sc(C(C)C)nc4-c4cccc(NS(=O)(=O)c5cc(F)ccc5F)c4)n3)cn2)CC1` [Example 96], the results for the IC50 in the assay with SK-MEL-3 tumor cells and against ErbB2 were less than 100 nM and more than 1000 nM, respectively.
Turning to `C=C(C)c1nc(-c2cccc(NS(=O)(=O)c3c(F)cccc3F)c2)c(-c2ccnc(Nc3ccc(N4CCN(CCF)CC4)c(F)c3)n2)s1` [Example 93], the IC50 in the assay on SK-MEL-3 tumor cells and at ErbB2 was 100 to 1000 nM in each case.
Turning to `CCc1nc(-c2cccc(NS(=O)(=O)c3ccccc3)c2)c(-c2ccnc(Nc3ccc(OC)c(N4CCN(CCS(C)(=O)=O)CC4)c3)n2)s1` [Example 5, N-[3-(2-Ethyl-5-{2-[(4-(methyloxy)-3-{4-[2-(methylsulfonyl)ethyl]-1-piperazinyl}phenyl)amino]-4-pyrimidinyl}-1,3-thiazol-4-yl)phenyl]benzenesulfonamide], the IC50 was less than 100 nM with SK-MEL-3 tumor cells and 100 to 1000 nM against ErbB2.
`CC(C)c1nc(-c2cccc(NS(=O)(=O)c3c(F)cccc3F)c2)c(-c2ccnc(Nc3ccc(N4CCN(C(C)C)CC4)cc3O)n2)s1` [Example 78]: the concentration for half-maximal inhibition (IC50) was less than 100 nM in the assay with SK-MEL-3 tumor cells and 100 to 1000 nM against ErbB2.
For `CCc1nc(-c2cccc(NS(=O)(=O)c3ccccc3)c2)c(-c2ccnc(Nc3ccc(N4CCOCC4)c(F)c3)n2)s1` [Example 4], in that order: 100 to 1000 nM and more than 1000 nM.
For the compound `CC(=O)N1CCc2cc(Nc3nccc(-c4sc(C(C)C)nc4-c4cccc(NS(=O)(=O)c5ccccc5)c4)n3)ccc21` [Example 71], the IC50 with SK-MEL-3 tumor cells and on ErbB2 was less than 100 nM each time.
As for `CCc1nc(-c2cccc(NS(=O)(=O)c3ccccc3)c2)c(-c2ccnc(Nc3ccc(N4CCN(C(C)=O)CC4)nc3)n2)s1` [Example 3, N-{3-[5-(2-{[6-(4-Acetyl-1-piperazinyl)-3-pyridinyl]amino}-4-pyrimidinyl)-2-ethyl-1,3-thiazol-4-yl]phenyl}benzenesulfonamide], the half-inhibitory concentration (IC50) with SK-MEL-3 tumor cells was less than 100 nM; at ErbB2, more than 1000 nM.
